Reference: patent US6395896B2, “Pyridazine derivatives, manufacturing method and related composition” (Shiseido Co., Ltd., priority 1999, dated 2002)

Assay: Colorant stabilization effect (photostabilizer, sunlight exposure)
Parameters: key to Sunlight exposure (80 MJ) Appearance: A: No change; B: No almost change; C: Yes change; key to Sunlight exposure (80 MJ) ΔE: ΔE color difference (Lab) vs. color before sunlight exposure
How it was run: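 Samples exposed to sunlight (around 80 MJ); appearance change judged visually. Color difference (ΔE) measured by spectrophotometer in Lab coordinates, calculated against the same sample's color before exposure.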

[1] = Red No. 227 0.0001 wt % + Yellow No. 5 0.0001 wt %, photostabilizer 0.03 wt %
[2] = Red No. 227 0.0001 wt % + Yellow No. 5 0.0001 wt %, photostabilizer 0.05 wt %
[3] = Red No. 227 0.0001 wt % + Yellow No. 5 0.0001 wt %, photostabilizer 0.1 wt %
[4] = Red No. 227 0.0001 wt % + Yellow No. 203 0.0001 wt %, photostabilizer 0.05 wt %
[5] = Red No. 227 0.0001 wt % + Yellow No. 203 0.0001 wt %, photostabilizer 0.1 wt %
[6] = Red No. 227 0.0001 wt % + Yellow No. 203 0.0001 wt %, photostabilizer 0.3 wt %
[7] = Red No. 227 0.0001 wt %, photostabilizer 0.02 wt %
[8] = Red No. 227 0.0001 wt %, photostabilizer 0.05 wt %
[9] = Red No. 227 0.0001 wt %, photostabilizer 0.1 wt %
[10] = Red No. 401 0.0001 wt % + Blue No. 1 0.00001 wt %, photostabilizer 0.03 wt %
[11] = Red No. 401 0.0001 wt % + Blue No. 1 0.00001 wt %, photostabilizer 0.05 wt %
[12] = Red No. 401 0.0001 wt % + Blue No. 1 0.00001 wt %, photostabilizer 0.1 wt %
[13] = Red No. 401 0.0001 wt % + Green No. 3 0.00001 wt %, photostabilizer 0.03 wt %
[14] = Red No. 401 0.0001 wt % + Green No. 3 0.00001 wt %, photostabilizer 0.05 wt %
[15] = Red No. 401 0.0001 wt % + Green No. 3 0.00001 wt %, photostabilizer 0.3 wt %
[16] = Red No. 401 0.0001 wt %, photostabilizer 0.05 wt %
[17] = Red No. 401 0.0001 wt %, photostabilizer 0.1 wt %
[18] = Red No. 401 0.0001 wt %, photostabilizer 0.3 wt %
[19] = Red No. 401 0.001 wt %, photostabilizer 0.03 wt %
[20] = Red No. 401 0.001 wt %, photostabilizer 0.05 wt %
[21] = Red No. 401 0.001 wt %, photostabilizer 0.1 wt %
[22] = Yellow No. 5 0.0001 wt %, photostabilizer 0.05 wt %
[23] = Yellow No. 5 0.0001 wt %, photostabilizer 0.1 wt %
[24] = Yellow No. 5 0.0001 wt %, photostabilizer 0.3 wt %
[25] = Yellow No. 5 0.001 wt %, photostabilizer 0.01 wt %
[26] = Yellow No. 5 0.001 wt %, photostabilizer 0.05 wt %
[27] = Yellow No. 5 0.001 wt %, photostabilizer 0.1 wt %
[28] = Yellow No. 203 0.0001 wt % + Yellow No. 5 0.0001 wt %, photostabilizer 0.03 wt %
[29] = Yellow No. 203 0.0001 wt % + Yellow No. 5 0.0001 wt %, photostabilizer 0.05 wt %
[30] = Yellow No. 203 0.0001 wt % + Yellow No. 5 0.0001 wt %, photostabilizer 0.1 wt %
[31] = Yellow No. 203 0.0001 wt %, photostabilizer 0.05 wt %
[32] = Yellow No. 203 0.0001 wt %, photostabilizer 0.1 wt %
[33] = Yellow No. 203 0.0001 wt %, photostabilizer 0.3 wt %
[34] = Yellow No. 203 0.001 wt %, photostabilizer 0.02 wt %
[35] = Yellow No. 203 0.001 wt %, photostabilizer 0.05 wt %
[36] = Yellow No. 203 0.001 wt %, photostabilizer 0.1 wt %

SMILES: Oc1nncc(N2CCOCC2)c1N1CCOCC1 [4,5-Dimorpholino-3-hydroxypyridazine]
- Sunlight exposure (80 MJ) Appearance [1]: A
- Sunlight exposure (80 MJ) ΔE [1]: 0.72
- Sunlight exposure (80 MJ) Appearance [2]: A
- Sunlight exposure (80 MJ) ΔE [2]: 0.59
- Sunlight exposure (80 MJ) Appearance [3]: A
- Sunlight exposure (80 MJ) ΔE [3]: 0.18
- Sunlight exposure (80 MJ) Appearance [4]: A
- Sunlight exposure (80 MJ) ΔE [4]: 0.78
- Sunlight exposure (80 MJ) Appearance [5]: A
- Sunlight exposure (80 MJ) ΔE [5]: 0.35
- Sunlight exposure (80 MJ) Appearance [6]: A
- Sunlight exposure (80 MJ) ΔE [6]: 0.14
- Sunlight exposure (80 MJ) Appearance [7]: A
- Sunlight exposure (80 MJ) ΔE [7]: 0.71
- Sunlight exposure (80 MJ) Appearance [8]: A
- Sunlight exposure (80 MJ) ΔE [8]: 0.49
- Sunlight exposure (80 MJ) Appearance [9]: A
- Sunlight exposure (80 MJ) ΔE [9]: 0.22
- Sunlight exposure (80 MJ) Appearance [10]: A
- Sunlight exposure (80 MJ) ΔE [10]: 0.95
- Sunlight exposure (80 MJ) Appearance [11]: A
- Sunlight exposure (80 MJ) ΔE [11]: 0.32
- Sunlight exposure (80 MJ) Appearance [12]: A
- Sunlight exposure (80 MJ) ΔE [12]: 0.07
- Sunlight exposure (80 MJ) Appearance [13]: A
- Sunlight exposure (80 MJ) ΔE [13]: 0.98
- Sunlight exposure (80 MJ) Appearance [14]: A
- Sunlight exposure (80 MJ) ΔE [14]: 0.73
- Sunlight exposure (80 MJ) Appearance [15]: A
- Sunlight exposure (80 MJ) ΔE [15]: 0.14
- Sunlight exposure (80 MJ) Appearance [16]: A
- Sunlight exposure (80 MJ) ΔE [16]: 0.82
- Sunlight exposure (80 MJ) Appearance [17]: A
- Sunlight exposure (80 MJ) ΔE [17]: 0.56
- Sunlight exposure (80 MJ) Appearance [18]: A
- Sunlight exposure (80 MJ) ΔE [18]: 0.19
- Sunlight exposure (80 MJ) Appearance [19]: A
- Sunlight exposure (80 MJ) ΔE [19]: 0.95
- Sunlight exposure (80 MJ) Appearance [20]: A
- Sunlight exposure (80 MJ) ΔE [20]: 0.71
- Sunlight exposure (80 MJ) Appearance [21]: A
- Sunlight exposure (80 MJ) ΔE [21]: 0.45
- Sunlight exposure (80 MJ) Appearance [22]: A
- Sunlight exposure (80 MJ) ΔE [22]: 0.59
- Sunlight exposure (80 MJ) Appearance [23]: A
- Sunlight exposure (80 MJ) ΔE [23]: 0.71
- Sunlight exposure (80 MJ) Appearance [24]: A
- Sunlight exposure (80 MJ) ΔE [24]: 0.22
- Sunlight exposure (80 MJ) Appearance [25]: A
- Sunlight exposure (80 MJ) ΔE [25]: 0.61
- Sunlight exposure (80 MJ) Appearance [26]: A
- Sunlight exposure (80 MJ) ΔE [26]: 0.43
- Sunlight exposure (80 MJ) Appearance [27]: A
- Sunlight exposure (80 MJ) ΔE [27]: 0.22
- Sunlight exposure (80 MJ) Appearance [28]: A
- Sunlight exposure (80 MJ) ΔE [28]: 0.52
- Sunlight exposure (80 MJ) Appearance [29]: A
- Sunlight exposure (80 MJ) ΔE [29]: 0.37
- Sunlight exposure (80 MJ) Appearance [30]: A
- Sunlight exposure (80 MJ) ΔE [30]: 0.12
- Sunlight exposure (80 MJ) Appearance [31]: A
- Sunlight exposure (80 MJ) ΔE [31]: 0.22
- Sunlight exposure (80 MJ) Appearance [32]: A
- Sunlight exposure (80 MJ) ΔE [32]: 0.10
- Sunlight exposure (80 MJ) Appearance [33]: A
- Sunlight exposure (80 MJ) ΔE [33]: 0.05
- Sunlight exposure (80 MJ) Appearance [34]: A
- Sunlight exposure (80 MJ) ΔE [34]: 0.25
- Sunlight exposure (80 MJ) Appearance [35]: A
- Sunlight exposure (80 MJ) ΔE [35]: 0.18
- Sunlight exposure (80 MJ) Appearance [36]: A
- Sunlight exposure (80 MJ) ΔE [36]: 0.08
- change of appearance of the composition (summary of Tables 11 to 13): small
- color difference ΔE (summary of Tables 11 to 13): very small in comparison with other photostabilizers
